In article PMC6957264 (Bioconjugate chemistry, 2017):

Legend:
[1] = system: EGFP-tagged PKCδ in CHO cells; test: Translocation of EGFP-tagged PKCδ in CHO cells, confocal microscopy; assay type: cell-based, Chinese hamster; conditions: 10 μM compound, images at 0, 5 and 10 min
isolated PKCδ C1a domain = conditions: cited from earlier work
PKCδ C1b domain = PKCδ C1b domain (Mus musculus, UniProt P28867); test: [3H]PDBu competitive binding assay, isolated C1b domain of PKCδ; conditions: read-out: Kd for the binding of [3H]PDBu to the PKCδ C1b
isolated PKCδ C1b domain = conditions: read-out: Kd for the isolated PKCδ C1b domain; cited from earlier work
[2] = system: EGFP-tagged PKCε in LNCaP cells; test: Translocation of GFP-tagged PKCε in LNCaP cells, confocal microscopy; assay type: cell-based, human; conditions: 1 μM, single experiment
[3] = system: C1a and C1b domains of PKCε; conditions: C1a vs C1b; cited from earlier work

PKCδ C1b domain, sequence (P28867 231-280 limits assumed): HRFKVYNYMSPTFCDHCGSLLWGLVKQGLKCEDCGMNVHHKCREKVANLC

Compound	translocation of EGFP-PKCδ from cytosol to plasma membranes [1]	difference in Kd between isolated PKCδ C1a and C1b domains (isolated PKCδ C1a domain; C1a vs C1b, isolated domains)	Kd (isolated PKCδ C1a domain; read-out: Kd for the isolated PKCδ C1a domain)	Kd (PKCδ C1b domain)	Kd (isolated PKCδ C1b domain)	plasma membrane translocation of PKCε [2]	difference in affinity between the C1a and C1b domains of PKCε [3]
CCCC(=O)O[C@@H]1[C@@H](C)[C@@]2(O)[C@@H](C=C(CO)C[C@]3(O)C(=O)C(C)=C[C@@H]23)[C@@H]2C(C)(C)[C@]12OC(=O)CCC [PDBu, phorbol 12,13-dibutyrate]	not observed more clearly than those by monomeric and dimeric DAG–lactones	6 fold	2 nM	0.19 nM	0.33 nM		
CCCCCCCCCCCCCC(=O)O[C@@H]1[C@@H](C)[C@@]2(O)[C@@H](C=C(CO)C[C@]3(O)C(=O)C(C)=C[C@@H]23)[C@@H]2C(C)(C)[C@]12OC(C)=O [PMA, phorbol 12-myristate 13-acetate]						dramatic plasma membrane translocation	≤ 3 fold
sn-1,2-diacylglycerol [DAG]							≤ 3 fold
